In ChEMBL document CHEMBL5247622, “Structural optimization of Imidazo[1, 2-a]pyridine derivatives for the treatment of gastric cancer via STAT3 signaling pathway” (Eur J Med Chem, 2022):
Active and inactive are the calls of the source. The rule behind the calls is not given here.

Columns and labels:
[1] = tested on: AGS; assay: Inhibition of cell invasion in human AGS cells at 0.03 to 0.3 uM incubated for 12 hrs by crystal violet staining based transwell assay; type: functional; settings: dose 0.03-0.3 µM
[2] = target: Signal transducer and activator of transcription 3 (Homo sapiens) (UniProt P40763); assay: Inhibition of STAT3 (unknown origin) transcriptional signaling transfected in HEK293T cells at 3 uM incubated for 24 hrs by firefly luciferase gene reporter assay; type: cell-based
Sequence of Signal transducer and activator of transcription 3 (Homo sapiens) (P40763 whole entry): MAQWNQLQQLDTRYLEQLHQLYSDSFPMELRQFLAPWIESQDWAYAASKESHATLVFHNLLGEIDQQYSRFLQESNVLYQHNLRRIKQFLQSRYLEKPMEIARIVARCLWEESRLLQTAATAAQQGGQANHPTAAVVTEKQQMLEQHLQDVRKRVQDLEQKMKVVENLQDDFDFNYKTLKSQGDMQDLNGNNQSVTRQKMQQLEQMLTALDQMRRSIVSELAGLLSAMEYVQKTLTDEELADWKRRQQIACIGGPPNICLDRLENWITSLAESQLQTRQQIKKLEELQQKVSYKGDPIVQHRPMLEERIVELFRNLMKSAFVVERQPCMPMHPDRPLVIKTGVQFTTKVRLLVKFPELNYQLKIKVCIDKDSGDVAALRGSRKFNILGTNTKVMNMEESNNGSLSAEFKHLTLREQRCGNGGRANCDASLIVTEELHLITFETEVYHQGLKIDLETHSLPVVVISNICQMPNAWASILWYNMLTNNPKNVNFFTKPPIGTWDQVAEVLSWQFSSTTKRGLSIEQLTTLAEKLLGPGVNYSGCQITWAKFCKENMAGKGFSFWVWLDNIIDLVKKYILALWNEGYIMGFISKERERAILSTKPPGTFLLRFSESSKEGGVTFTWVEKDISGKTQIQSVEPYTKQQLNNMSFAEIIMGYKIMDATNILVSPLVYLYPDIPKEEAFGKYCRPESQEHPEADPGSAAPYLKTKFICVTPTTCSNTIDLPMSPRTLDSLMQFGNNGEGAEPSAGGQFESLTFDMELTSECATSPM

[3] = tested on: MGC-803; assay: Antitumor activity against human MGC-803 cells xenografted in BALB/c mouse assessed as inhibition of tumor weight at 5 to 15 mg/kg,ip administrated for 21 consecutive days; type: functional, organism-based; settings: dose 5-15 mg/kg
[4] = Toxicity in BALB/c mouse xenografted with human MGC-803 cells assessed as morphological change in heart at 15 mg/kg,ip administrated for 21 consecutive days by hematoxylin and eosin staining method; type: organism-based; settings: in vivo
[5] = Toxicity in BALB/c mouse xenografted with human MGC-803 cells assessed as morphological change in spleen at 5 mg/kg,ip administrated for 21 consecutive days by hematoxylin and eosin staining method; type: organism-based; settings: in vivo
[6] = tested on: AGS; assay: Induction of apoptosis in human AGS cells assessed as viable cells at 3 uM incubated for 48 hrs by Annexin V-FITC/PI staining based flow cytometry method (reference value: 94.8 %); type: functional; settings: read-out: Activity
[7] = tested on: MGC-803; assay: Antitumor activity against human MGC-803 cells xenografted in BALB/c mouse assessed as reduction of Ki67 expression level in tumor at 5 mg/kg,ip administrated for 21 consecutive days by immunohistochemistry analysis; type: functional, organism-based
[8] = target: Signal transducer and activator of transcription 3 (Homo sapiens) (UniProt P40763); assay: Inhibition of STAT3 in human MGC-803 cells assessed as inhibition of STAT3 phosphorylation level at Tyr705 at 0.3 to 3 uM by western blot assay; type: cell-based; settings: dose 0.3-3 µM
[9] = Toxicity in BALB/c mouse xenografted with human MGC-803 cells assessed as morphological change in liver at 15 mg/kg,ip administrated for 21 consecutive days by hematoxylin and eosin staining method; type: organism-based; settings: in vivo
[10] = tested on: MGC-803; assay: Antitumor activity against human MGC-803 cells xenografted in BALB/c mouse assessed as inhibition of tumor volume at 5 to 15 mg/kg,ip administrated for 21 consecutive days; type: functional, organism-based; settings: dose 5-15 mg/kg
[11] = Metabolic stability in human liver microsomes assessed as half life; type: ADME, Microsome
[12] = target: Signal transducer and activator of transcription 3 (Homo sapiens) (UniProt P40763); assay: In vivo inhibition of STAT3 in BALB/c mouse xenografted with human MGC-803 cells assessed as reduction of Mcl-1 expression in tumor at 15 mg/kg,ip administrated for 21 consecutive days by immunohistochemistry analysis; type: functional, organism-based
[13] = target: Signal transducer and activator of transcription 3 (Homo sapiens) (UniProt P40763); assay: Inhibition of STAT3 in human AGS cells assessed as inhibition of total STAT3 protein level at 0.3 to 3 uM by western blot assay; type: cell-based; settings: dose 0.3-3 µM
[14] = tested on: AGS; assay: Induction of apoptosis in human AGS cells assessed as necrotic cells at 3 uM incubated for 48 hrs by Annexin V-FITC/PI staining based flow cytometry method (reference value: 0.32 %); type: functional
[15] = target: Signal transducer and activator of transcription 3 (Homo sapiens) (UniProt P40763); assay: Inhibition of Flag-tagged STAT3 (unknown origin) dimerization transfected in HEK293T cells at 0.3 to 3 uM incubated for 24 hrs followed by IL-6 stimulation and measured after 1 hr by immunoprecipitation assay; type: cell-based; settings: dose 0.3-3 µM, time 25.0 hrs
[16] = tested on: MGC-803; assay: Inhibition of cell invasion in human MGC-803 cells at 0.03 to 0.3 uM incubated for 12 hrs by crystal violet staining based transwell assay; type: functional; settings: dose 0.03-0.3 µM
[17] = tested on: AGS; assay: Induction of apoptosis in human AGS cells assessed as late apoptotic cells at 1 uM incubated for 48 hrs by Annexin V-FITC/PI staining based flow cytometry method (reference value: 2.46 %); type: functional
[18] = Toxicity in BALB/c mouse xenografted with human MGC-803 cells assessed as morphological change in spleen at 15 mg/kg,ip administrated for 21 consecutive days by hematoxylin and eosin staining method; type: organism-based; settings: in vivo
[19] = Toxicity in BALB/c mouse xenografted with human MGC-803 cells assessed as morphological change in lung at 15 mg/kg,ip administrated for 21 consecutive days by hematoxylin and eosin staining method; type: organism-based; settings: in vivo
[20] = tested on: AGS; assay: Induction of apoptosis in human AGS cells assessed as viable cells at 0.3 uM incubated for 48 hrs by Annexin V-FITC/PI staining based flow cytometry method (reference value: 94.8 %); type: functional; settings: read-out: Activity
[21] = target: Signal transducer and activator of transcription 3 (Homo sapiens) (UniProt P40763); assay: Inhibition of STAT3 in human MGC-803 cells assessed as inhibition of total STAT3 protein level at 0.3 to 3 uM by western blot assay; type: cell-based; settings: dose 0.3-3 µM
[22] = tested on: MGC-803; assay: Antiproliferative activity against human MGC-803 cells assessed as reduction in cell viability incubated for 72 hrs by CCK-8 assay; type: functional, cell-based; settings: MGC-803, 72 h
[23] = Toxicity in BALB/c mouse xenografted with human MGC-803 cells assessed as morphological change in kidney at 15 mg/kg,ip administrated for 21 consecutive days by hematoxylin and eosin staining method; type: organism-based; settings: in vivo
[24] = tested on: MGC-803; assay: Antitumor activity against human MGC-803 cells xenografted in BALB/c mouse assessed as tumor growth inhibition at 5 mg/kg,ip administrated for 21 consecutive days relative to control; type: functional; settings: read-out: TGI
[25] = tested on: MGC-803; assay: Inhibition of cell migration in human MGC-803 cells at 0.03 to 0.3 uM incubated for 48 hrs by wound healing assay based microscopic analysis; type: functional; settings: dose 0.03-0.3 µM
[26] = tested on: AGS; assay: Induction of apoptosis in human AGS cells assessed as late apoptotic cells at 3 uM incubated for 48 hrs by Annexin V-FITC/PI staining based flow cytometry method (reference value: 2.46 %); type: functional
[27] = Toxicity in BALB/c mouse xenografted with human MGC-803 cells assessed as morphological change in liver at 5 mg/kg,ip administrated for 21 consecutive days by hematoxylin and eosin staining method; type: organism-based; settings: in vivo
[28] = Toxicity in BALB/c mouse xenografted with human MGC-803 cells assessed as morphological change in lung at 5 mg/kg,ip administrated for 21 consecutive days by hematoxylin and eosin staining method; type: organism-based; settings: in vivo
[29] = tested on: MGC-803; assay: Antitumor activity against human MGC-803 cells xenografted in BALB/c mouse assessed as reduction of Ki67 expression level in tumor at 15 mg/kg,ip administrated for 21 consecutive days by immunohistochemistry analysis; type: functional, organism-based
[30] = Toxicity in BALB/c mouse xenografted with human MGC-803 cells assessed as morphological change in kidney at 5 mg/kg,ip administrated for 21 consecutive days by hematoxylin and eosin staining method; type: organism-based; settings: in vivo
[31] = tested on: AGS; assay: Induction of apoptosis in human AGS cells assessed as necrotic cells at 1 uM incubated for 48 hrs by Annexin V-FITC/PI staining based flow cytometry method (reference value: 0.32 %); type: functional
[32] = tested on: AGS; assay: Antiproliferative activity against human AGS cells assessed as reduction in cell viability incubated for 72 hrs by CCK-8 assay; type: functional, cell-based
[33] = target: Signal transducer and activator of transcription 3 (Homo sapiens) (UniProt P40763); assay: In vivo inhibition of STAT3 in BALB/c mouse xenografted with human MGC-803 cells assessed as reduction of STAT3 phosphorylation level at Tyr705 in tumor at 5 mg/kg,ip administrated for 21 consecutive days by immunohistochemistry analysis; type: functional, organism-based
[34] = tested on: AGS; assay: Induction of apoptosis in human AGS cells assessed as necrotic cells at 0.3 uM incubated for 48 hrs by Annexin V-FITC/PI staining based flow cytometry method (reference value: 0.32 %); type: functional

## Cc1cc(NC(=O)c2ccc([N+](=O)[O-])o2)ccc1-c1cnc2ccccn12
[1]
  inhibition: Active
[2]
  inhibition: Active
[3]
  inhibition: Dose-Dependent Effect
[4]
  Activity: Non-Toxic
[5]
  Activity: Non-Toxic
[6]
  viability at 3 µM: 81.3%
[7]
  inhibition: Active
[8]
  inhibition: Dose-Dependent Effect
[9]
  Activity: Non-Toxic
[10]
  inhibition: Dose-Dependent Effect
[11]
  half-life: 41.2 min
[12]
  inhibition: Active
[13]
  inhibition: inactive
[14]
  Activity: 0.18%
[15]
  inhibition: Dose-Dependent Effect
[16]
  inhibition: Active
[17]
  Activity: 2.67%
[18]
  Activity: Non-Toxic
[19]
  Activity: Non-Toxic
[20]
  viability at 0.3 µM: 93.7%
[21]
  inhibition: inactive
[22]
  IC50: 900 nM
[23]
  Activity: Non-Toxic
[24]
  inhibition in vivo at 5 mg/kg: 47.1%
[25]
  inhibition: Dose-Dependent Effect
[26]
  Activity: 6.37%
[27]
  Activity: Non-Toxic
[28]
  Activity: Non-Toxic
[29]
  inhibition: Active
[30]
  Activity: Non-Toxic
[31]
  Activity: 0.75%
[32]
  IC50: 390 nM
[33]
  inhibition: Active
[34]
  Activity: 0.62%
